Assay results as given in PubChem BioAssay (NCI).
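1) Cells in 96-well plates. 2) Compound, 48 h, 5 concentrations. 3) Linear interpolation between surrounding doses. 4) Unreached endpoint = highest concentration. Abbreviation: GI50, concentration required for 50% inhibition of growth. TGI: concentration producing complete growth inhibition.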

How the values were obtained:
Assay in all cases: NCI tumour cell line growth inhibition, 48 h
[1] = system: EKVX NSCLC
[2] = system: HCC-2998 colon
[3] = system: MALME-3M melanoma
[4] = system: UACC-257 melanoma
[5] = system: OVCAR-8 ovarian
[6] = system: NCI-H226 lung
[7] = system: HOP-62 NSCLC
[8] = system: MOLT-4 leukemia
[9] = system: SF-295 CNS
[10] = system: MCF7 breast

| Structure (SMILES) | TGI [1] | TGI [2] | TGI [3] | TGI [4] | TGI [5] | TGI [6] | TGI [7] | TGI [8] | TGI [9] | GI50 [1] | GI50 [2] | GI50 [10] | TGI [10] | GI50 [4] | GI50 [5] | GI50 [6] | GI50 [7] | GI50 [8] | GI50 [9] | GI50 [3] |
| --- | --- | --- | --- | --- | --- | --- | --- | --- | --- | --- | --- | --- | --- | --- | --- | --- | --- | --- | --- | --- |
| COc1ccc(OC)c(/C(C)=N/NC(N)=S)c1 | > 100 µM | > 100 µM | > 100 µM | > 100 µM | > 100 µM | > 100 µM | > 100 µM | > 100 µM | > 100 µM | – | – | – | – | – | – | – | – | – | – | – |
| COC(=O)N(C(=O)OC)C(C(=O)O)C(C)C (stereo unspecified) | > 100 µM | > 100 µM | – | > 100 µM | > 100 µM | > 100 µM | > 100 µM | – | > 100 µM | – | – | – | – | – | – | – | – | – | – | – |
| Cc1ccc(C)c2c1C(O)(C#Cc1ccccc1)c1ccccc1C2(O)C#Cc1ccccc1 (stereo unspecified) | > 29 µM | > 100 µM | – | 6.6 µM | > 100 µM | 9.46 µM | > 100 µM | > 23.3 µM | > 100 µM | 3.36 µM | 5.56 µM | 2.47 µM | > 100 µM | 2.54 µM | 3.82 µM | 1.9 µM | 5.88 µM | 2.5 µM | 2.91 µM | – |
| C[N-]c1nnnn1C.[Au+].c1ccc([PH+](c2ccccc2)c2ccccc2)cc1 | 8.99 µM | 9.23 µM | 2.91 µM | 6.51 µM | 14.2 µM | 14 µM | 16.8 µM | 4.22 µM | 12.2 µM | 4.32 µM | 4.06 µM | – | – | 2.03 µM | 3.18 µM | 4.98 µM | 7.89 µM | 1.62 µM | 3.47 µM | 1.42 µM |
| CC(C)CC(NC(=O)c1cccc(O)c1O)C(=O)NCc1cc(CNC(=O)C(CC(C)C)NC(=O)c2cccc(O)c2O)cc(CNC(=O)C(CC(C)C)NC(=O)c2cccc(O)c2O)c1 (stereo unspecified) | 69.5 µM | 20.6 µM | 39.5 µM | 58.9 µM | > 100 µM | 60.2 µM | 52.8 µM | 37.9 µM | 38.6 µM | – | – | – | – | – | – | – | – | – | – | – |
| O=c1nc(/C=C/c2ccccc2Cl)cc2n1CCN2CCO | > 100 µM | – | > 100 µM | – | > 100 µM | > 100 µM | > 100 µM | > 100 µM | > 100 µM | – | – | – | – | – | – | – | – | – | – | – |
| O=C1c2ccccc2C(Br)(Br)c2ccccc21 | > 100 µM | > 31.6 µM | > 31.6 µM | > 100 µM | > 100 µM | > 31.6 µM | – | > 31.6 µM | > 31.6 µM | – | – | – | – | – | – | – | – | – | – | – |
| Cc1cc2c(ccc3c(C)cc(=O)oc32)o1 | > 100 µM | > 100 µM | > 100 µM | > 100 µM | > 100 µM | > 100 µM | > 100 µM | > 100 µM | > 100 µM | – | – | – | – | – | – | – | – | – | – | – |
| Oc1[nH]c2ccccc2c1N=Nc1ccccn1 | > 100 µM | 82.8 µM | – | > 100 µM | 26.3 µM | 61.7 µM | 91.7 µM | > 100 µM | > 100 µM | – | – | – | > 100 µM | – | – | – | – | – | – | – |
| COc1ccc(Nc2nc3ccc(C(F)(F)F)cc3nc2-c2ccccc2)cc1OC | 80.3 µM | 41.3 µM | > 100 µM | > 100 µM | > 100 µM | > 100 µM | > 100 µM | > 100 µM | 44.9 µM | – | – | – | – | – | – | – | – | – | – | – |
| CCCCCC[N+](C)(C)Cc1ccc(C[N+](C)(C)CCCCCC)cc1 | 27.7 µM | 27.9 µM | 97.8 µM | 35.5 µM | 7.37 µM | 20.4 µM | 8.23 µM | – | 10.5 µM | – | – | – | – | – | – | – | – | – | – | – |
